The values below come from patent publication US11725036B2, “Modified lipidated relaxin B chain peptides and their therapeutic use” (Sanofi, priority 2018, dated 2023).

For the experiment, the target named is T1, RXFP1 (Homo sapiens, UniProt Q9HBX9).
T1 construct: OVCAR5 cells expressing endogenous RXFP1; endogenous in cells; host or cells: OVCAR5
T1 sequence (Q9HBX9 1-757): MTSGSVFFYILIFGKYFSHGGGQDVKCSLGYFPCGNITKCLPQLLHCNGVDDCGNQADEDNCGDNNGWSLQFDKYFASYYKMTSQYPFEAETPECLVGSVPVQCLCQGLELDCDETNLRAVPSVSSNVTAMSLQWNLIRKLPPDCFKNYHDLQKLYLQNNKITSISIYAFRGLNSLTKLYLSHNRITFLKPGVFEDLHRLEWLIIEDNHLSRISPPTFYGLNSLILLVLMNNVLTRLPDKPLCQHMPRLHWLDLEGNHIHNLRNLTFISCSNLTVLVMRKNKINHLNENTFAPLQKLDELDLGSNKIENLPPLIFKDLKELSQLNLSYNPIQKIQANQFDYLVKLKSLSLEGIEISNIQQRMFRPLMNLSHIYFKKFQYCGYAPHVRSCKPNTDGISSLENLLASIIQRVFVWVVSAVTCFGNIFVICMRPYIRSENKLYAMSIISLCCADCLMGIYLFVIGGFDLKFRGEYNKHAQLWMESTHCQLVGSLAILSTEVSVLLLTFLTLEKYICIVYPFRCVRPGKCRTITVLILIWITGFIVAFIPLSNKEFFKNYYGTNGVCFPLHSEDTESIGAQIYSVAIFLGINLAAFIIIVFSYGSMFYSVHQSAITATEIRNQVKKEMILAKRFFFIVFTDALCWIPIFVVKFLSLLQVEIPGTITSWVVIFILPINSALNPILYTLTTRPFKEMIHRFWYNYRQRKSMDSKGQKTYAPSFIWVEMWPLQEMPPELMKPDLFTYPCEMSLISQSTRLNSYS
The experiment can be described thus: OVCAR5 cAMP assay (HTRF). The experiment is classed as cell-based. The note with it: for EC50: OVCAR 5 cells expressing endogenous RXFP1, cAMP readout; for Emax: OVCAR 5 cells, maximal cAMP relative to H2-relaxin. In short, it runs like this:
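Endogenous RXFP1 in OVCAR5 cells, pretreated 40 min at 37° C with 1 mM IBMX, then exposed to increasing peptide concentrations in serum-free medium for 30 min at 37° C. cAMP read by HTRF; EC50 by variable-slope sigmoidal fit, Emax as % of H2-relaxin maximal cAMP in same run.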
On the technique in general: Cyclic AMP is a second messenger, typically raised through Gs and lowered through Gi signalling.

Starred links: 1 amine or outer side, 2 acyl side, 3 side chain; linkers in the order of their positions; H or OH if unused. Non-standard residues stand in square brackets, D forms with d. Residues, ends and D or L forms follow the SMILES beside them. Groups on a side chain read outwards from the residue. *: point of attachment. X1 = CCCCCCCCCCCCCCCC(=O)N[C@@H](CCC(=O)N[C@@H](CCC(=O)N[C@@H](CCC(=O)NCCCOCCOCCOCCCNC(=O)CCC(=O)NCCCOCCOCCOCCCNC(=O)CCC(=O)NCCCOCCOCCOCCCN*)C(=O)O)C(=O)O)C(=O)O; γGlu = O=C(O)[C@H](CCC(=O)[*:2])N[*:1]; Palmitoyl = CCCCCCCCCCCCCCCC(=O)*; Suc = O=C(CCC(=O)[*:2])[*:1]; αMeK = C[C@](N)(CCCCN)C(=O)O; AEEA = NCCOCCOCC(=O)O; Aib = CC(C)(N)C(=O)O

As for `CCCCCCCCCCCCCCCC(=O)N[C@@H](CCC(=O)N[C@@H](CCC(=O)N[C@@H](CCC(=O)NCCCOCCOCCOCCCNC(=O)CCC(=O)NCCCOCCOCCOCCCNC(=O)CCC(=O)NCCCOCCOCCOCCCNC(=O)CCC(=O)NCCCC[C@H](NC(=O)CNC(=O)[C@H](CCC(=O)O)NC(=O)C(C)(C)NC(=O)C(C)(C)NC(=O)[C@@H](NC(=O)[C@H](CCCCNC(C)=O)NC(=O)[C@H](C)NC(=O)[C@H](CCCNC(=N)N)NC(=O)[C@@H](NC(=O)[C@H](CCCCN)NC(=O)[C@H](CCC(=O)O)NC(=O)[C@H](CCCNC(=N)N)NC(=O)CNC(=O)[C@H](CCC(=O)O)NC(=O)[C@H](CC(C)C)NC(C)=O)C(C)C)[C@@H](C)CC)C(=O)N[C@@H](CO)C(=O)N[C@H](C(=O)N[C@@H](Cc1ccccc1)C(=O)N[C@@H](CO)C(=O)N[C@H](CCCCN)C(=O)N[C@@H](CCCNC(=N)N)C(=O)N[C@@H](C)C(=O)N[C@@H](CCCCNC(C)=O)C(N)=O)[C@@H](C)O)C(=O)O)C(=O)O)C(=O)O` [compound 36] (Ac-LEGREKVRAK(Ac)I[Aib][Aib]EGK([Suc-X1])STFS[dK]RAK(Ac)-NH2), a half-maximal effect (EC50) was put at 3.6 nM and the Emax (usually the greatest response seen or fitted, relative to the assay's reference) was found to be 93%.

As to `CCCCCCCCCCCCCCCC(=O)N[C@@H](CCC(=O)N[C@@H](CCC(=O)N[C@@H](CCC(=O)NCCCOCCOCCOCCCNC(=O)CCC(=O)NCCCOCCOCCOCCCNC(=O)CCC(=O)NCCCOCCOCCOCCCNC(=O)CCC(=O)NCCCC[C@H](NC(=O)CNC(=O)[C@H](CCC(=O)O)NC(=O)C(C)(C)NC(=O)C(C)(C)NC(=O)[C@@H](NC(=O)[C@H](CCCCNC(C)=O)NC(=O)[C@H](C)NC(=O)[C@H](CCCNC(=N)N)NC(=O)[C@@H](NC(=O)[C@H](CC(C)C)NC(=O)[C@H](CCC(=O)O)NC(=O)[C@H](CCCNC(=N)N)NC(=O)CNC(=O)[C@H](CCC(=O)O)NC(=O)[C@H](CC(C)C)NC(C)=O)C(C)C)[C@@H](C)CC)C(=O)N[C@@H](CO)C(=O)N[C@H](C(=O)N[C@@H](Cc1c[nH]c2ccccc12)C(=O)N[C@@H](CO)C(=O)NC(C)(C)C(=O)N[C@@H](CCCNC(=N)N)C(=O)N[C@@H](CCCNC(=N)N)C(=O)N[C@@H](CCCCNC(C)=O)C(N)=O)[C@@H](C)O)C(=O)O)C(=O)O)C(=O)O` [compound 37] (Ac-LEGRELVRAK(Ac)I[Aib][Aib]EGK([Suc-X1])STWS[Aib]RRK(Ac)-NH2), a half-maximal effect (EC50) was put at 5.6 nM and the Emax was found to be 98%.

As to `CCCCCCCCCCCCCCCC(=O)N[C@@H](CCC(=O)N[C@@H](CCC(=O)N[C@@H](CCC(=O)NCCCOCCOCCOCCCNC(=O)CCC(=O)NCCCOCCOCCOCCCNC(=O)CCC(=O)NCCCOCCOCCOCCCNC(=O)CCC(=O)NCCCC[C@H](NC(=O)CNC(=O)[C@H](CCC(=O)O)NC(=O)C(C)(C)NC(=O)C(C)(C)NC(=O)[C@@H](NC(=O)[C@H](CCCCNC(C)=O)NC(=O)[C@H](C)NC(=O)[C@H](CCCNC(=N)N)NC(=O)[C@@H](NC(=O)[C@H](Cc1ccccc1)NC(=O)[C@H](CCC(=O)O)NC(=O)[C@H](CCCNC(=N)N)NC(=O)CNC(=O)[C@H](CCC(=O)O)NC(=O)[C@H](CC(C)C)NC(C)=O)C(C)C)[C@@H](C)CC)C(=O)N[C@@H](CO)C(=O)N[C@H](C(=O)N[C@@H](Cc1c[nH]c2ccccc12)C(=O)N[C@@H](CO)C(=O)NC(C)(C)C(=O)N[C@@H](CCCNC(=N)N)C(=O)N[C@@H](CCCNC(=N)N)C(=O)N[C@@H](CCCCNC(C)=O)C(N)=O)[C@@H](C)O)C(=O)O)C(=O)O)C(=O)O` [compound 39] (Ac-LEGREFVRAK(Ac)I[Aib][Aib]EGK([Suc-X1])STWS[Aib]RRK(Ac)-NH2), the concentration for a half-maximal effect (EC50) (as a rule, the concentration at which the effect is half-maximal) amounted to 8.7 nM and the Emax was 93%.

For the compound `CCCCCCCCCCCCCCCC(=O)N[C@@H](CCC(=O)N[C@@H](CCC(=O)N[C@@H](CCC(=O)NCCOCCOCC(=O)NCCOCCOCC(=O)NCCOCCOCC(=O)NCCOCCOCC(=O)NCCCC[C@H](NC(=O)CNC(=O)[C@H](CCC(=O)O)NC(=O)C(C)(C)NC(=O)C(C)(C)NC(=O)[C@@H](NC(=O)[C@H](CCCCNC(C)=O)NC(=O)[C@H](C)NC(=O)[C@H](CCCNC(=N)N)NC(=O)[C@@H](NC(=O)[C@H](CCCCN)NC(=O)[C@H](CCC(=O)O)NC(=O)[C@H](CCCNC(=N)N)NC(=O)CNC(=O)[C@H](CCC(=O)O)NC(=O)[C@H](CC(C)C)NC(C)=O)C(C)C)[C@@H](C)CC)C(=O)N[C@@H](CO)C(=O)N[C@H](C(=O)N[C@@H](Cc1c[nH]c2ccccc12)C(=O)N[C@@H](CO)C(=O)N[C@@](C)(CCCCN)C(=O)N[C@@H](CCCNC(=N)N)C(=O)N[C@@H](C)C(=O)N[C@@H](CCCCNC(C)=O)C(N)=O)[C@@H](C)O)C(=O)O)C(=O)O)C(=O)O` [compound 42] (Ac-LEGREKVRAK(Ac)I[Aib][Aib]EGK([AEEA-AEEA-AEEA-AEEA-γGlu-γGlu-γGlu-Palmitoyl])STWS[αMeK]RAK(Ac)-NH2), the half-maximal effective concentration (EC50) stood at 1.5 nM and the maximal effect (Emax) was 84%.

`CCCCCCCCCCCCCCCC(=O)N[C@@H](CCC(=O)N[C@@H](CCC(=O)N[C@@H](CCC(=O)NCCOCCOCC(=O)NCCOCCOCC(=O)NCCOCCOCC(=O)NCCOCCOCC(=O)NCCOCCOCC(=O)NCCCC[C@H](NC(=O)CNC(=O)[C@H](CCC(=O)O)NC(=O)C(C)(C)NC(=O)C(C)(C)NC(=O)[C@@H](NC(=O)[C@H](CCCCNC(C)=O)NC(=O)[C@H](C)NC(=O)[C@H](CCCNC(=N)N)NC(=O)[C@@H](NC(=O)[C@H](CCCCN)NC(=O)[C@H](CCC(=O)O)NC(=O)[C@H](CCCNC(=N)N)NC(=O)CNC(=O)[C@H](CCC(=O)O)NC(=O)[C@H](CC(C)C)NC(C)=O)C(C)C)[C@@H](C)CC)C(=O)N[C@@H](CO)C(=O)N[C@H](C(=O)N[C@@H](Cc1ccccc1)C(=O)N[C@@H](CO)C(=O)N[C@@](C)(CCCCN)C(=O)N[C@@H](CCCNC(=N)N)C(=O)N[C@@H](C)C(=O)N[C@@H](CCCCNC(C)=O)C(N)=O)[C@@H](C)O)C(=O)O)C(=O)O)C(=O)O` [compound 45] (Ac-LEGREKVRAK(Ac)I[Aib][Aib]EGK([AEEA-AEEA-AEEA-AEEA-AEEA-γGlu-γGlu-γGlu-Palmitoyl])STFS[αMeK]RAK(Ac)-NH2): the response was half-maximal at 0.45 nM (EC50) and the Emax amounted to 96%.

On to `CCCCCCCCCCCCCCCC(=O)N[C@@H](CCC(=O)N[C@@H](CCC(=O)N[C@@H](CCC(=O)NCCCOCCOCCOCCCNC(=O)CCC(=O)NCCCOCCOCCOCCCNC(=O)CCC(=O)NCCCOCCOCCOCCCNC(=O)CCC(=O)NCCCC[C@H](NC(=O)CNC(=O)[C@H](CCC(=O)O)NC(=O)C(C)(C)NC(=O)C(C)(C)NC(=O)[C@@H](NC(=O)[C@H](CCCCN)NC(=O)[C@H](C)NC(=O)[C@H](CCCNC(=N)N)NC(=O)[C@@H](NC(=O)[C@H](CCCCN)NC(=O)[C@H](CCC(=O)O)NC(=O)[C@H](CCCNC(=N)N)NC(=O)CNC(=O)[C@H](CCC(=O)O)NC(=O)[C@H](CC(C)C)NC(C)=O)C(C)C)[C@@H](C)CC)C(=O)N[C@@H](CO)C(=O)N[C@H](C(=O)N[C@@H](Cc1ccccc1)C(=O)N[C@@H](CO)C(=O)N[C@@](C)(CCCCN)C(=O)N[C@@H](CCCNC(=N)N)C(=O)N[C@@H](C)C(=O)N[C@@H](CCCCNC(C)=O)C(N)=O)[C@@H](C)O)C(=O)O)C(=O)O)C(=O)O` [compound 47] (Ac-LEGREKVRAKI[Aib][Aib]EGK([Suc-X1])STFS[αMeK]RAK(Ac)-NH2), for which the EC50 was found to be 0.64 nM and the maximum response (Emax) amounted to 95%.

For the compound `CCCCCCCCCCCCCCCC(=O)N[C@@H](CCC(=O)N[C@@H](CCC(=O)N[C@@H](CCC(=O)NCCCOCCOCCOCCCNC(=O)CCC(=O)NCCCOCCOCCOCCCNC(=O)CCC(=O)NCCCOCCOCCOCCCNC(=O)CCC(=O)NCCCC[C@H](NC(=O)CNC(=O)[C@H](CCC(=O)O)NC(=O)C(C)(C)NC(=O)C(C)(C)NC(=O)[C@@H](NC(=O)[C@H](CCC(N)=O)NC(=O)[C@H](C)NC(=O)[C@H](CCCNC(=N)N)NC(=O)[C@@H](NC(=O)[C@H](CCCCN)NC(=O)[C@H](CCC(=O)O)NC(=O)[C@H](CCCNC(=N)N)NC(=O)CNC(=O)[C@H](CCC(=O)O)NC(=O)[C@H](CC(C)C)NC(C)=O)C(C)C)[C@@H](C)CC)C(=O)N[C@@H](CO)C(=O)N[C@H](C(=O)N[C@@H](Cc1ccccc1)C(=O)N[C@@H](CO)C(=O)N[C@@](C)(CCCCN)C(=O)N[C@@H](CCCNC(=N)N)C(=O)N[C@@H](C)C(=O)N[C@@H](CCCCNC(C)=O)C(N)=O)[C@@H](C)O)C(=O)O)C(=O)O)C(=O)O` [compound 48] (Ac-LEGREKVRAQI[Aib][Aib]EGK([Suc-X1])STFS[αMeK]RAK(Ac)-NH2), the EC50 was determined as 0.45 nM and the maximum response (Emax) was found to be 96%.
